Results published in patent US11696913B2, “Prolonged ectoparasite-controlling agent for animal” (MITSUI CHEMICALS AGRO, INC., priority 2017, dated 2023).

Tests used:
Ctenocephalides felis [1] = assay: In vitro contact test with fleas; details: read-out: insecticidal activity; for pest or weed control at 0.2 µg/cm2, 0.2 µg/cm2: dose 0.2 μg/cm^2, dead or moribund fleas after 48 h; for pest or weed control at 1 µg/cm2, 1 µg/cm2: dose 1 μg/cm^2, dead or moribund fleas after 48 h
Method: In Vitro Contact Tests with Fleas
In vitro contact tests with fleas were conducted with adult male and female cat fleas (Ctenocephalides felis).
(§1) To coat the test tubes, the test substance was dissolved and diluted in acetone p.a. to the desired concentration. The solution was then homogeneously applied to the inner wall and base of a glass tube by turning and rocking on an orbital shaker until complete evaporation of the solvent. For example, with a 900 ppm solution of test substance, an area-based dose of 5 μg/cm^2 was achieved.
Upon complete evaporation of the solvent, 5-10 adult cat fleas (Ctenocephalides felis) were added to each coated tube, which was then sealed with a perforated plastic lid and incubated in a horizontal position at room temperature and ambient humidity. After 48 h, insecticidal activity against fleas was determined. For this, fleas were collected to the base of the tube by knocking the tube, and the tube was allowed to stand upright. Fleas which remained motionless at the base or moved in an uncoordinated manner were considered dead or moribund, respectively.
A substance was judged to have good insecticidal activity against Ctenocephalides felis when at least 80% of the fleas were found dead or moribund at a dose of the substance of μg/cm^2. 100% insecticidal activity means that all the fleas were found dead or moribund. 0% insecticidal activity means that no fleas were found dead or moribund.

Rhipicephalus sanguineus = assay: In vitro contact test with adult hard ticks (Rhipicephalus sanguineus); details: read-out: acaricidal activity
Method: (§2) In Vitro Contact Tests with Adult Hard Ticks
(§3) In vitro contact tests with ticks were conducted with adult males and females of Rhipicephalus sanguineus, Ixodes ricinus, or Dermacentor variabilis, or nymphs of Amblyomma americanum.
as §1, with “For the coating of” for “To coat”, “vials,” for “tubes,”, “vial” for “tube”
(§4) After the solvent was completely evaporated, 5-10 adult ticks were put in each coated test vial, which was then sealed with a perforated plastic lid and incubated in a horizontal position in the dark at room temperature and ambient humidity (Rhipicephalus sanguineus) or in a climate-controlled cabinet (Ixodes ricinus, Dermacentor variabilis, Amblyomma americanum [21° C., 85% rel. hum.]). Acaricidal activity against the respective tick species was determined after 48 h. For this, ticks were collected to the base of the test vial by gentle knocking, and test vials were then incubated on a hotplate at 45-50° C. for no longer than 5 min. Ticks which remained motionless on the base of the test vial or moved uncoordinated without deliberately climbing up to avoid the heat were considered dead or moribund, respectively.
(§5) A substance was judged to have good acaricidal activity against the respective tick species when at least 80% of ticks were found dead or moribund at a dose of the substance of g/cm^2. An acaricidal activity of 100% means all ticks were dead or moribund. An acaricidal activity of 0% means none of the ticks was found dead or moribund.

[2] = system: Rhipicephalus (Boophilus) microplus; assay: In vitro injection test with Rhipicephalus (Boophilus) microplus (BOOPMI Inj); details: 168 h, laid fertile eggs after 7 days, read-out: acaricidal activity; for pest or weed control at 0.00016 mg: dose 0.16 μg/animal injected; for pest or weed control at 0.0008 mg: dose 0.8 μg/animal injected
Method: In Vitro Injection Test with Rhipicephalus (Boophilus) Microplus (BOOPMI Inj)
To produce an appropriate mixture for injection, the test substance was dissolved and diluted in dimethyl sulphoxide to the desired concentration. 1 μl of the test mixture was injected into the abdomen of each of 5 engorged adult female cattle ticks (Rhipicephalus (Boophilus) microplus). The ticks were transferred into petri dishes and maintained in a climate-controlled room [28° C., 85% rel. hum.].
Acaricidal activity against cattle ticks was assessed after 7 days by assessment of laid fertile eggs. […] An acaricidal activity of 100% means that none of the ticks laid eggs or laid eggs were infertile; 0% means that the ticks laid eggs, and all the eggs were fertile.

Ctenocephalides felis [3] = assay: Ctenocephalides felis in-vitro feeding test with fleas (CTECFE oral); details: 48 hours, read-out: insecticidal feeding activity; for pest or weed control at 0.8 ppm: dose 0.8 ppm in citrated cattle blood; for pest or weed control at 4 ppm: dose 4 ppm in citrated cattle blood
Method: Ctenocephalides felis In-Vitro Feeding Test with Fleas (CTECFE Oral)
To prepare a test blood mixture for feeding fleas, the test substance was dissolved in dimethyl sulphoxide and diluted with citrated cattle blood to the desired concentration.
To assemble the test set-up, about 20 unfed adult male and female cat fleas
(Ctenocephalides felis) were placed in a chamber which was closed at the top and bottom with gauze. A metal cylinder was sealed at one end with parafilm membrane, placed with the sealed base onto the chamber, and filled with the test blood mixture, which could be imbibed by the fleas through the parafilm membrane. The assembled test set-up was maintained at about 37° C. After 48 hours, the insecticidal feeding activity against fleas was determined. 100% means that all of the fleas were killed; 0% means that none of the fleas was killed.

Amblyomma americanum = assay: In vitro contact test with hard ticks (Amblyomma americanum nymphs); details: dose 1 μg/cm^2, 48 h, read-out: acaricidal activity
Method: as §2, §3
as §1, with “For the coating of” for “To coat”, “vials,” for “tubes,”, “vial” for “tube”
as §4, §5

| SMILES | pest or weed control at 0.2 µg/cm2, 0.2 µg/cm2 (Ctenocephalides felis [1]) | pest or weed control at 1 µg/cm2, 1 µg/cm2 (Ctenocephalides felis [1]) | pest or weed control at 0.0008 mg [2] | pest or weed control at 0.8 ppm (Ctenocephalides felis [3]) | pest or weed control at 4 ppm (Ctenocephalides felis [3]) | also measured |
| --- | --- | --- | --- | --- | --- | --- |
| CN(C(=O)c1ccc(C#N)cc1F)c1cccc(C(=O)Nc2c(Br)cc(C(F)(C(F)(F)F)C(F)(F)F)cc2C(F)(F)F)c1 [Compound 14] | 95% | 95% | 100% | 95% | 95% | pest or weed control at 0.2 µg/cm2, 0.2 µg/cm2 (Rhipicephalus sanguineus; dose 0.2 μg/cm^2, 48 h): 90%; pest or weed control at 1 µg/cm2, 1 µg/cm2 (Rhipicephalus sanguineus; dose 1 μg/cm^2, 48 h): 90%; pest or weed control at 0.00016 mg [2]: 100%; pest or weed control at 0.16 ppm (Ctenocephalides felis [3]; dose 0.16 ppm in citrated cattle blood): 95% |
| CN(C(=O)c1ccc(C#N)cc1Cl)c1cccc(C(=O)Nc2c(Br)cc(C(F)(C(F)(F)F)C(F)(F)F)cc2C(F)(F)F)c1 [Compound 18] |  |  |  | 95% | 95% |  |
| O=C(Nc1c(I)cc(C(F)(C(F)(F)F)C(F)(F)F)cc1C(F)(F)F)c1cccc(NC(=O)c2ccc(Cl)cc2Cl)c1 [Compound 32] |  |  | 100% |  | 95% |  |
| O=C(Nc1cccc(C(=O)Nc2c(Br)cc(C(F)(C(F)(F)F)C(F)(F)F)cc2OC(F)(F)F)c1)c1ccc(C(F)(F)F)cc1 [Compound 1] |  |  | 100% |  |  | pest or weed control at 1 µg/cm2, 1 µg/cm2 (Amblyomma americanum): 90% |
| CN(C(=O)c1ccc(C#N)cc1)c1cccc(C(=O)Nc2c(I)cc(C(F)(C(F)(F)F)C(F)(F)F)cc2C(F)(F)F)c1 [Compound 20] | 95% | 95% | 100% | 95% | 95% | pest or weed control at 32 ng ([2]; dose 0.032 μg/animal injected): 100%; pest or weed control at 0.00016 mg [2]: 100% |
| CN(C(=O)c1ccc(S(C)(=O)=O)cc1)c1cccc(C(=O)Nc2c(Br)cc(C(F)(C(F)(F)F)C(F)(F)F)cc2C(F)(F)F)c1 [Compound 7] |  | 95% | 100% |  | 95% |  |
| CN(C(=O)c1ccc(C#N)cc1)c1cc(C(=O)Nc2c(Br)cc(C(F)(C(F)(F)F)C(F)(F)F)cc2C(F)(F)F)ccc1F [Compound 8] | 95% | 95% |  | 95% | 95% |  |
| CS(=O)(=O)c1ccc(C(=O)Nc2cccc(C(=O)Nc3c(I)cc(C(F)(C(F)(F)F)C(F)(F)F)cc3C(F)(F)F)c2)c(Cl)c1 [Compound 40] |  |  | 100% | 95% | 95% |  |
| O=C(Nc1cccc(C(=O)Nc2c(Br)cc(C(F)(C(F)(F)F)C(F)(F)F)cc2OC(F)(F)F)c1)c1ccc(Cl)cc1 [Compound 2] |  |  | 100% |  |  | pest or weed control at 1 µg/cm2, 1 µg/cm2 (Amblyomma americanum): 90% |
